Tests used:
LRRK2 G2019S = target: T1, LRRK2 G2019S (Homo sapiens, UniProt Q5S007, G2019S); assay: LRRK2 Kinase Activity Assay (LanthaScreen TR-FRET), G2019S; format: biochemical; conditions: recombinant G2019S-LRRK2, 25 μM ATP, 400 nM LRRKtide, 60 min; class symbols
T1 construct: purchased Life Technologies PV4881
Procedure: LRRK2 kinase activity was measured using a LanthaScreen™ Kinase Activity Assay from ThermoFisher Scientific. Recombinant wild type or G2019S-LRRK2 protein (Life Technologies, PR8604B or PV4881, respectively), was incubated with a fluorescein-labeled peptide substrate called LRRKtide that is based upon ezrin/radixin/moesin (ERM) (Life Technologies, PV4901) in the presence of ATP and serially diluted compound. […] Compound-dependent inhibition of the TR-FRET signal was used to generate a concentration-response curve for IC50 determination.
After 60 min incubation at room temperature, the reaction was stopped by addition of 10 μL of 2×stop solution containing a final concentration of 2 nM anti-pERM antibody and 10 mM EDTA.

LRRK2 WT = target: T2, LRRK2 WT (Homo sapiens, UniProt Q5S007); assay: LRRK2 Kinase Activity Assay (LanthaScreen TR-FRET), wild type; format: biochemical; conditions: recombinant wild type LRRK2, 25 μM ATP, 400 nM LRRKtide, 60 min; class symbols
T2 construct: purchased Life Technologies PR8604B
Method in brief: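 Recombinant wild-type or G2019S LRRK2 incubated with fluorescein-labeled LRRKtide (ERM-based) peptide, ATP and serially diluted compound for 60 min at room temperature.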

T1 sequence (Q5S007 whole entry G2019S): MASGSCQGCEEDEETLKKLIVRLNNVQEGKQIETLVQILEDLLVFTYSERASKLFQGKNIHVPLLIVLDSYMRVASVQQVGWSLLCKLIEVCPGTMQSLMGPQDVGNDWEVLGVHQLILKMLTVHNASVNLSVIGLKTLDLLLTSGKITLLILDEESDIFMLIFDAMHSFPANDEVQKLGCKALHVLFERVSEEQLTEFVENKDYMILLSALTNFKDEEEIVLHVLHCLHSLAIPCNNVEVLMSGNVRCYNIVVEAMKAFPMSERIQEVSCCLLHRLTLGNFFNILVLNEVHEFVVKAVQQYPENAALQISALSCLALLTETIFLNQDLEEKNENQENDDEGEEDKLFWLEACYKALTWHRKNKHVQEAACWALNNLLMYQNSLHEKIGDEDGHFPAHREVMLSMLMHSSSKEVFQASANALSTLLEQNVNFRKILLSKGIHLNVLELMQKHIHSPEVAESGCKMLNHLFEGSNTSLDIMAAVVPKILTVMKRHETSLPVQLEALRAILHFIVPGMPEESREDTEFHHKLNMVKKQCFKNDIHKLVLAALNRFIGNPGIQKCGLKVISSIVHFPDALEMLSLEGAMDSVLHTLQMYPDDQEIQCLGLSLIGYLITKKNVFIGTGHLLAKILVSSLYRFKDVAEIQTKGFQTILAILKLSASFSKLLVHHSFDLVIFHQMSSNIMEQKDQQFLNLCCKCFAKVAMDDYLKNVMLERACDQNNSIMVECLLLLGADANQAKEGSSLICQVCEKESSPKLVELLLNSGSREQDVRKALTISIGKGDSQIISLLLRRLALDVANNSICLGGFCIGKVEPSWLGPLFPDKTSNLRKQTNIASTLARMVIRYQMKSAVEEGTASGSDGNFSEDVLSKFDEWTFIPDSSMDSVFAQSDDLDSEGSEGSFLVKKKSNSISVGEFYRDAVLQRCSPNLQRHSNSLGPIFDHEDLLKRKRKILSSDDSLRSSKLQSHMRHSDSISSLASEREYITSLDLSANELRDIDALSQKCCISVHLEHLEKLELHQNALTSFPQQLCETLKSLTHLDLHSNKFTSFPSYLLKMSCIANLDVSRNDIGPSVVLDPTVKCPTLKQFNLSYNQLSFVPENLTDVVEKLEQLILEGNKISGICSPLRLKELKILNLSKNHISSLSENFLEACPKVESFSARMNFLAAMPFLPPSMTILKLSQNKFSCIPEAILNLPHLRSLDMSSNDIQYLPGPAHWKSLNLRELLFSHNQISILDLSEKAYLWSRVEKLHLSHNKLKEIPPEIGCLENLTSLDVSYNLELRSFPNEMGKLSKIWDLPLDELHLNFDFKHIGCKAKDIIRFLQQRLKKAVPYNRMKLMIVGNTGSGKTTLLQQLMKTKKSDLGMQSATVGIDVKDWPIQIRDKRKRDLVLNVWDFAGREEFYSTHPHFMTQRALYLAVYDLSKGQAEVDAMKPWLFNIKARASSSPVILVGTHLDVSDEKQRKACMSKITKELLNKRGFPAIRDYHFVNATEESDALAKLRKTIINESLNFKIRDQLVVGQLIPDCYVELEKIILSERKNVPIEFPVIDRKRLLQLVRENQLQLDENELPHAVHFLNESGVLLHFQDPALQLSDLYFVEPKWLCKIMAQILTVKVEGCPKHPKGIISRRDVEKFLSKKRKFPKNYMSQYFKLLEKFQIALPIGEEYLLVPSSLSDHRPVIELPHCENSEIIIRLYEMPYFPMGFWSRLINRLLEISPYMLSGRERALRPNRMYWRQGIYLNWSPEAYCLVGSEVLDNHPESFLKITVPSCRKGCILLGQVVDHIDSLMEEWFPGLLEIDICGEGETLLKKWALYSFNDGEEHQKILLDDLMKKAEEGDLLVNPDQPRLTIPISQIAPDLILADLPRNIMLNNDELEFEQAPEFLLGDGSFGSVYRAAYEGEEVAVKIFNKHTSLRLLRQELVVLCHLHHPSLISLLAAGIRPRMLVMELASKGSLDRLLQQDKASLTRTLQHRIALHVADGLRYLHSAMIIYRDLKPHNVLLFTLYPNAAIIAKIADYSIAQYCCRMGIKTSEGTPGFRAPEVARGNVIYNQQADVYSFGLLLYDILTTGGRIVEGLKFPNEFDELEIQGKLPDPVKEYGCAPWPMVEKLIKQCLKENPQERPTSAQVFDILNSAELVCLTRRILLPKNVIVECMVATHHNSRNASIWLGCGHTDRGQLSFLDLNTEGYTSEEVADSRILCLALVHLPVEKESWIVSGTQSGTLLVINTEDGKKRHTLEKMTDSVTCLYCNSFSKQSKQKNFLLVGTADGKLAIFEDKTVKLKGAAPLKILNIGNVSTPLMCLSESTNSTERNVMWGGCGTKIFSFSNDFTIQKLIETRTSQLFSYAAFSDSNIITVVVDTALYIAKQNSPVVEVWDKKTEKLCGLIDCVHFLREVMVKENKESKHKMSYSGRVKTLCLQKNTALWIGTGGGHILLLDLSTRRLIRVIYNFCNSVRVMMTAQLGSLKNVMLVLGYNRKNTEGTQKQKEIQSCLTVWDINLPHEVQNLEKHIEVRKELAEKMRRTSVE
T2 sequence (Q5S007 whole entry): as the sequence (Q5S007 whole entry G2019S) above, with S2019G counted along it

Row | IC50 (LRRK2 G2019S) | IC50 (LRRK2 WT) | Compound
1 | 100 to 1000 nM | 1000 to 10000 nM | Cc1c(C#N)c(Cl)nc2c1CCC[C@@H]2Nc1ccc2[nH]nc(C3CC3)c2c1 (single isomer, unassigned) [183, enantiomer 1, 2-Chloro-8-[(3-cyclopropyl-1H-indazol-5-yl)amino]-4-methyl-5,6,7,8-tetrahydroquinoline-3-carbonitrile]
2 | < 100 nM | < 100 nM | Cc1c(C#N)c(Cl)nc2c1CCC[C@@H]2Nc1ccc2[nH]nc(C3CC3)c2c1 (single isomer, unassigned) [183, enantiomer 2, 2-Chloro-8-[(3-cyclopropyl-1H-indazol-5-yl)amino]-4-methyl-5,6,7,8-tetrahydroquinoline-3-carbonitrile]
3 | < 100 nM | < 100 nM | Cc1c(C#N)c(Cl)nc2c1CCC[C@@H]2Oc1ccc2[nH]nc(C3CC3)c2c1 (single isomer, unassigned) [184, enantiomer 1, 2-Chloro-8-[(3-cyclopropyl-1H-indazol-5-yl)oxy]-4-methyl-5,6,7,8-tetrahydroquinoline-3-carbonitrile]
4 | < 100 nM | 1000 to 10000 nM | Cc1c(C#N)c(Cl)nc2c1CCC[C@@H]2Oc1ccc2[nH]nc(C3CC3)c2c1 (single isomer, unassigned) [184, enantiomer 2, 2-Chloro-8-[(3-cyclopropyl-1H-indazol-5-yl)oxy]-4-methyl-5,6,7,8-tetrahydroquinoline-3-carbonitrile]
5 | < 100 nM | < 100 nM | COc1n[nH]c2ccc(O[C@H]3CCc4cc(C#N)c(Cl)nc43)cc12 (single isomer, unassigned) [185, enantiomer 1, 2-Chloro-7-[(3-methoxy-1H-indazol-5-yl)oxy]-6,7-dihydro-5H-cyclopenta[b]pyridine-3-carbonitrile]
6 | 100 to 1000 nM | 1000 to 10000 nM | COc1n[nH]c2ccc(O[C@H]3CCc4cc(C#N)c(Cl)nc43)cc12 (single isomer, unassigned) [185, enantiomer 2, 2-Chloro-7-[(3-methoxy-1H-indazol-5-yl)oxy]-6,7-dihydro-5H-cyclopenta[b]pyridine-3-carbonitrile]
7 | < 100 nM | < 100 nM | COc1n[nH]c2ccc(O[C@H]3CCCc4cc(C#N)c(Cl)nc43)cc12 (single isomer, unassigned) [186, enantiomer 1, 2-Chloro-8-[(3-methoxy-1H-indazol-5-yl)oxy]-5,6,7,8-tetrahydroquinoline-3-carbonitrile]
8 | 100 to 1000 nM | 1000 to 10000 nM | COc1n[nH]c2ccc(O[C@H]3CCCc4cc(C#N)c(Cl)nc43)cc12 (single isomer, unassigned) [186, enantiomer 2, 2-Chloro-8-[(3-methoxy-1H-indazol-5-yl)oxy]-5,6,7,8-tetrahydroquinoline-3-carbonitrile]
9 | < 100 nM | < 100 nM | COc1n[nH]c2ccc(O[C@H]3CCc4cc(C#N)c(Br)nc43)cc12 (single isomer, unassigned) [187, enantiomer 1, 2-Bromo-7-[(3-methoxy-1H-indazol-5-yl)oxy]-6,7-dihydro-5H-cyclopenta[b]pyridine-3-carbonitrile]
10 | 100 to 1000 nM | 100 to 1000 nM | COc1n[nH]c2ccc(O[C@H]3CCc4cc(C#N)c(Br)nc43)cc12 (single isomer, unassigned) [187, enantiomer 2, 2-Bromo-7-[(3-methoxy-1H-indazol-5-yl)oxy]-6,7-dihydro-5H-cyclopenta[b]pyridine-3-carbonitrile]
11 | < 100 nM | < 100 nM | COc1n[nH]c2ccc(O[C@H]3CCCc4cc(C#N)c(Br)nc43)cc12 (single isomer, unassigned) [188, enantiomer 1, 2-Bromo-8-[(3-methoxy-1H-indazol-5-yl)oxy]-5,6,7,8-tetrahydroquinoline-3-carbonitrile]
12 | 100 to 1000 nM | 1000 to 10000 nM | COc1n[nH]c2ccc(O[C@H]3CCCc4cc(C#N)c(Br)nc43)cc12 (single isomer, unassigned) [188, enantiomer 2, 2-Bromo-8-[(3-methoxy-1H-indazol-5-yl)oxy]-5,6,7,8-tetrahydroquinoline-3-carbonitrile]
13 | 100 to 1000 nM | 1000 to 10000 nM | COc1n[nH]c2ccc(O[C@H]3CCc4cc(C#N)c(Cl)cc43)cc12 (single isomer, unassigned) [189, enantiomer 1, 6-Chloro-1-[(3-methoxy-1H-indazol-5-yl)oxy]-2,3-dihydro-1H-indene-5-carbonitrile]
14 | < 100 nM | 100 to 1000 nM | COc1n[nH]c2ccc(O[C@H]3CCc4cc(C#N)c(Cl)cc43)cc12 (single isomer, unassigned) [189, enantiomer 2, 6-Chloro-1-[(3-methoxy-1H-indazol-5-yl)oxy]-2,3-dihydro-1H-indene-5-carbonitrile]
15 | < 100 nM | < 100 nM | Cc1cc2[nH]nc(-c3cnco3)c2cc1NC1CCCc2cc(C#N)cnc21 (single isomer, unassigned) [190, enantiomer 1, 8-[[6-Methyl-3-(1,3-oxazol-5-yl)-1H-indazol-5-yl]amino]-5,6,7,8-tetrahydroquinoline-3-carbonitrile]
16 | < 100 nM | 100 to 1000 nM | N#Cc1ccc2c(c1)OCC[C@@H]2Nc1ccc2[nH]nc(-c3cnco3)c2c1 (single isomer, unassigned) [191, enantiomer 1, 4-((3-(oxazol-5-yl)-1H-indazol-5-yl)amino)chromane-7-carbonitrile]
17 | < 100 nM | < 100 nM | N#Cc1ccc2c(c1)OCC[C@@H]2Nc1ccc2[nH]nc(-c3cnco3)c2c1 (single isomer, unassigned) [191, enantiomer 2, 4-{[3-(1,3-oxazol-5-yl)-1H-indazol-5-yl]amino}-3,4-dihydro-2H-1-benzopyran-7-carbonitrile]
18 | 100 to 1000 nM | 100 to 1000 nM | N#Cc1ccc2c(c1)OCC[C@@H]2Nc1ccc2[nH]nc(-c3cnoc3)c2c1 (single isomer, unassigned) [192, enantiomer 1, 4-((3-(Isoxazol-4-yl)-1H-indazol-5-yl)amino)chromane-7-carbonitrile]
19 | < 100 nM | < 100 nM | N#Cc1ccc2c(c1)OCC[C@@H]2Nc1ccc2[nH]nc(-c3cnoc3)c2c1 (single isomer, unassigned) [192, enantiomer 2, 4-((3-(Isoxazol-4-yl)-1H-indazol-5-yl)amino)chromane-7-carbonitrile]
20 | 100 to 1000 nM | 1000 to 10000 nM | N#Cc1ccc2c(c1)OCC[C@@H]2Nc1ccc2[nH]nc(I)c2c1 (single isomer, unassigned) [193, enantiomer 1, 4-((3-Iodo-1H-indazol-5-yl)amino)chromane-7-carbonitrile]
21 | < 100 nM | < 100 nM | N#Cc1ccc2c(c1)OCC[C@@H]2Nc1ccc2[nH]nc(I)c2c1 (single isomer, unassigned) [193, enantiomer 2, 4-((3-Iodo-1H-indazol-5-yl)amino)chromane-7-carbonitrile]
22 | < 100 nM | < 100 nM | N#Cc1cnc2c(c1)OCC[C@@H]2Nc1ccc2[nH]nc(-c3cnco3)c2c1 (single isomer, unassigned) [194, enantiomer 1, 4-((3-(Oxazol-5-yl)-1H-indazol-5-yl)amino)-3,4-dihydro-2H-pyrano[3,2-b]pyridine-7-carbonitrile]

Source: patent publication US20230148214A1, “INDAZOLES AND AZAINDAZOLES AS LRRK2 INHIBITORS” (ESCAPE Bio, Inc., priority 2020, published 2023)
